Assay results taken from US8263595B2, “Triazolopyridine compounds and their use as ask inhibitors” (Merck Serono SA, priority 2007, dated 2012).
Where a name gives a salt, the structure may show the parent alone.

These molecules were tested against T1, human recombinant ASK1 (Homo sapiens, UniProt Q99683) (assay: Enzyme inhibition assay (in vitro ASK1 assay), luciferase-based measurement of remaining ATP). Conditions: human recombinant ASK1, MBP and ATP as substrates, 180 minutes at 30° C.; triplicates on at least 2 separate occasions.
T1 sequence (Q99683 1-1374): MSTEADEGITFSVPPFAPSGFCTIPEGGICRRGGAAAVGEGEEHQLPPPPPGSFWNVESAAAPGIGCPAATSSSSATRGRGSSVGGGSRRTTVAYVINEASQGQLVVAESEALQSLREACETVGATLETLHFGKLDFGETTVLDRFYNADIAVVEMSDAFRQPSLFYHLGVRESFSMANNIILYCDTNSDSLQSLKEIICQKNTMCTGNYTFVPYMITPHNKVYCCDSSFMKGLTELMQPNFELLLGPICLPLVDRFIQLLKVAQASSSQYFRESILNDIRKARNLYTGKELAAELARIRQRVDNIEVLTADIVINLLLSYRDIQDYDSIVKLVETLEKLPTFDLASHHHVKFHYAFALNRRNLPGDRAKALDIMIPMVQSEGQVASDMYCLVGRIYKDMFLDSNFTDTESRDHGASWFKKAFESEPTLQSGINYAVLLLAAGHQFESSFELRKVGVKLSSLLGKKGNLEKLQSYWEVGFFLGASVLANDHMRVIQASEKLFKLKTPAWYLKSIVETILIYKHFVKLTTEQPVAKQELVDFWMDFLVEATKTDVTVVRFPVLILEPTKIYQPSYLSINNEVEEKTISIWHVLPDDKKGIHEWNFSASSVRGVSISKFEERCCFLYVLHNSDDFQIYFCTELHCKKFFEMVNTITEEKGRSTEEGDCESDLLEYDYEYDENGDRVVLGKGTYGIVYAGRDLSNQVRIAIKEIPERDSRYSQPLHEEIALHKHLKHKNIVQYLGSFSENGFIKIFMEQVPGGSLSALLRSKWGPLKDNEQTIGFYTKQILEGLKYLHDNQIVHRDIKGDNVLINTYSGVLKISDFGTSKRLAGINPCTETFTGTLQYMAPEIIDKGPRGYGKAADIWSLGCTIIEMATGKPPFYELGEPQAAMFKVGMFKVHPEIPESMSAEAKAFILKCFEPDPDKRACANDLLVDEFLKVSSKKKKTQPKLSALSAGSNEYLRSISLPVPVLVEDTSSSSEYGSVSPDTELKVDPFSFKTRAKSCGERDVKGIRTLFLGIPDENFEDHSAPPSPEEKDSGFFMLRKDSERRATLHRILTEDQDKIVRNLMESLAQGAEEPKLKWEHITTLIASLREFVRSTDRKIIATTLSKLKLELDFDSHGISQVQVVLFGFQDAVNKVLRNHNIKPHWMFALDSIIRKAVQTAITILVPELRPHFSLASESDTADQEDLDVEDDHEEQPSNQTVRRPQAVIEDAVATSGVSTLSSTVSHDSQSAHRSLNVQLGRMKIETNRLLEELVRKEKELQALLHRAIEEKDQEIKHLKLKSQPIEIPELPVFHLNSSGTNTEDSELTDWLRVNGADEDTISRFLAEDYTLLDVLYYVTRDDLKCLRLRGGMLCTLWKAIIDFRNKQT
Format: biochemical
Experimental: Assays were performed in a 384 well plate (Corning, #3654) format, using the human recombinant ASK1 as an enzyme and MBP (myelin basic protein, Upstate/Millipore, #13-104) with ATP as substrates. Assay read out was the measurement of the amount of ATP remaining after stopping the reaction, using a luciferase-based kit from Cambrex.
Compounds to be tested were dissolved in 100% DMSO at a concentration of 10 mM. Subsequent dilutions were performed in 100% DMSO using a Biomek FX Workstation. 5 μL of diluted compound or vehicle (6% DMSO) was distributed to a 384 well plate. 5 μL of substrates (ATP 7.5 μM, MBP 450 ng/μL) diluted in ASK1 buffer (20 mM Tris HCl pH 7.4, 0.001% Brij35, 0.01% BSA, 5 mM MgCl2, 1 mM DL-Dithiothreitol) were added, followed by 5 μL at of human recombinant ASK1 enzyme (22.5 ng/mL) diluted in ASK1 buffer in order to start the reaction. The reaction ran for 180 minutes at 30° C. before the addition of 5 μL of stop solution (Cambrex, #LT23-231). 10 μL of Pklight ATP detection reagent (Cambrex #LT23-233) were added. After 120 min of incubation, luminescence was measured on a Perkin-Elmer Victor 2 spectrofluorimeter. The percentage of inhibition relative to the fluorescence observed in the presence of solvent (1% DMSO) alone was determined. The IC50 values for inhibition were determined in triplicates on at least 2 separate occasions.

Row | Compound | IC50 [nM]
1 | O=C(Nc1nc2cccc(-c3ccoc3)n2n1)c1ccc(C(F)(F)F)cc1 [Example 3, N-[5-(3-furyl)[1,2,4]triazolo[1,5-a]pyridin-2-yl]-4-(trifluoromethyl)benzamide] | 8000 ± 400
2 | CCC(C)Nc1cc(Cl)cc2nc(NC(=O)c3ccc(NCCCO)nc3)nn12 (centres unmarked) [Example 169, N-[5-(sec-butylamino)-7-chloro[1,2,4]triazolo[1,5-a]pyridin-2-yl]-6-[(3-hydroxypropyl)amino]nicotinamide] | 119 ± 29
3 | O=C(Nc1nc2cccc(NC3CCCCCC3)n2n1)c1cccnc1 [Example 61, N-[5-(cycloheptylamino)[1,2,4]triazolo[1,5-a]pyridin-2-yl]nicotinamide dihydrochloride] | 180 ± 20
4 | CCC(C)Nc1cc(C(F)(F)F)cc2nc(NC(=O)c3cccnc3)nn12 (centres unmarked) [Example 100, N-[5-(sec-butylamino)-7-(trifluoromethyl)[1,2,4]triazolo[1,5-a]pyridin-2-yl]nicotinamide] | 56 ± 8
5 | Cc1ccc(CNc2cccc3nc(NC(=O)c4cccnc4)nn23)o1 [Example 63, N-(5-{[(5-methyl-2-furyl)methyl]amino}[1,2,4]triazolo[1,5-a]pyridin-2-yl)nicotinamide] | 9860
6 | O=C(Nc1nc2cccc(NC3CCCCC3)n2n1)c1ccc(N2CCOCC2)nc1 [Example 86, N-[5-(cyclohexylamino)[1,2,4]triazolo[1,5-a]pyridin-2-yl]-6-morpholin-4-ylnicotinamide] | 110 ± 50
7 | O=C(Nc1nc2cccc(NCC3CCCCC3)n2n1)c1cccnc1 [Example 115, N-{5-[(cyclohexylmethyl)amino][1,2,4]triazolo[1,5-a]pyridin-2-yl}nicotinamide] | 519 ± 113
8 | O=C(Nc1nc2cccc(NC3CCCOC3)n2n1)c1ccccc1 (centres unmarked) [Example 81, N-[5-(tetrahydro-2H-pyran-3-ylamino)[1,2,4]triazolo[1,5-a]pyridin-2-yl]benzamide] | 1660 ± 50
9 | O=C(Nc1nc2cc(C(F)(F)F)cc(NCC3CC3)n2n1)c1cccnc1 [Example 89, N-[5-[(cyclopropylmethyl)amino]-7-(trifluoromethyl)[1,2,4]triazolo[1,5-a]pyridin-2-yl]nicotinamide] | 460 ± 50
10 | O=C(Nc1nc2cccc(NCC3CCCO3)n2n1)c1ccccc1 (centres unmarked) [Example 45, N-{5-[(tetrahydrofuran-2-ylmethyl)amino][1,2,4]triazolo[1,5-a]pyridin-2-yl}benzamide] | 3380
11 | COc1cc(-c2ccc3nc(NC(=O)c4ccc(CN5CCCC5=O)cc4)nn3c2)ccc1O [Example 146, N-[6-(4-hydroxy-3-methoxyphenyl)[1,2,4]triazolo[1,5-a]pyridin-2-yl]-4-[(2-oxopyrrolidin-1-yl)methyl]benzamide] | 138 ± 30
12 | O=C(Nc1nc2cccc(NC3CCCCC3)n2n1)c1ccc(NCCCO)nc1 [Example 132, N-[5-(cyclohexylamino)[1,2,4]triazolo[1,5-a]pyridin-2-yl]-6-[(3-hydroxypropyl)amino]nicotinamide] | 91 ± 26
13 | CC(C)Nc1cc(C(F)(F)F)cc2nc(NC(=O)c3cccnc3)nn12 [Example 99, N-[5-(isopropylamino)-7-(trifluoromethyl)[1,2,4]triazolo[1,5-a]pyridin-2-yl]nicotinamide] | 42 ± 7
14 | CN1CCC(Nc2cccc3nc(NC(=O)c4ccccc4)nn23)CC1 [Example 72, N-{5-[(1-methylpiperidin-4-yl)amino][1,2,4]triazolo[1,5-a]pyridin-2-yl}benzamide] | 4080
15 | COc1cc(-c2ccc3nc(NC(=O)c4ccc(CN5CCCCC5)cc4)nn3c2)ccc1O [Example 144, N-[6-(4-hydroxy-3-methoxyphenyl)[1,2,4]triazolo[1,5-a]pyridin-2-yl]-4-(piperidin-1-ylmethyl)benzamide] | 2000
16 | O=C(Nc1nc2cc(Cl)cc(NC3CCCCC3)n2n1)c1cccnc1 [Example 120, N-[7-chloro-5-(cyclohexylamino)[1,2,4]triazolo[1,5-a]pyridin-2-yl]nicotinamide] | 67 ± 12
17 | O=C(Nc1nc2cc(C(F)(F)F)cc(NC3CCCCC3)n2n1)c1cccnc1 [Example 74, N-[5-(cyclohexylamino)-7-(trifluoromethyl)[1,2,4]triazolo[1,5-a]pyridin-2-yl]nicotinamide] | 120 ± 10
18 | O=C(CCNC(=O)c1ccccc1)Nc1nc2cccc(-c3ccoc3)n2n1 [Example 96, N-(3-{[5-(3-furyl)[1,2,4]triazolo[1,5-a]pyridin-2-yl]amino}-3-oxopropyl)benzamide] | 990 ± 110
19 | COc1cc(-c2ccc3nc(NC(=O)c4cccnc4)nn3c2)ccc1O [Example 66, N-[6-(4-hydroxy-3-methoxyphenyl)[1,2,4]triazolo[1,5-a]pyridin-2-yl]nicotinamide hydrochloride] | 260 ± 10
20 | CCC(CO)Nc1cccc2nc(NC(=O)c3ccccc3)nn12 (centres unmarked) [Example 50, N-(5-{[1-(hydroxymethyl)propyl]amino}[1,2,4]triazolo[1,5-a]pyridin-2-yl)benzamide] | 8000 ± 1000
21 | COC(=O)CCC(=O)Nc1nc2cccc(-c3ccoc3)n2n1 [Example 7, methyl 4-{[5-(3-furyl)[1,2,4]triazolo[1,5-a]pyridin-2-yl]amino}-4-oxobutanoate] | 7000 ± 1000
22 | COc1cc(-c2ccc3nc(NC(=O)c4ccccc4)nn3c2)ccc1O [Example 56, N-[6-(4-hydroxy-3-methoxyphenyl)[1,2,4]triazolo[1,5-a]pyridin-2-yl]benzamide hydrochloride] | 990 ± 40
23 | O=C(Nc1nc2cc(C(F)(F)F)cc(NCCCO)n2n1)c1cccnc1 [Example 124, N-[5-[(3-hydroxypropyl)amino]-7-(trifluoromethyl)[1,2,4]triazolo[1,5-a]pyridin-2-yl]nicotinamide] | 197 ± 6
24 | COc1cc(-c2ccc3nc(NC(=O)c4ccc(CN(C)C)cc4)nn3c2)ccc1O [Example 147, 4-[(dimethylamino)methyl]-N-[6-(4-hydroxy-3-methoxyphenyl)[1,2,4]triazolo[1,5-a]pyridin-2-yl]benzamide] | 5500
25 | COCC(=O)Nc1nc2cccc(-c3ccoc3)n2n1 [Example 5, N-[5-(3-furyl)[1,2,4]triazolo[1,5-a]pyridin-2-yl]-2-methoxyacetamide] | 17000 ± 5000
26 | O=C(Nc1nc2cccc(-c3cn[nH]c3)n2n1)c1ccccc1 [Example 12, N-[5-(1H-pyrazol-4-yl)[1,2,4]triazolo[1,5-a]pyridin-2-yl]benzamide] | 14800 ± 200
27 | CN(C)Cc1ccc(C(=O)Nc2nc3cccc(NC4CCCCC4)n3n2)cc1 [Example 87, N-[5-(cyclohexylamino)[1,2,4]triazolo[1,5-a]pyridin-2-yl]-4-[(dimethylamino)methyl]benzamide] | 5960
28 | CC(C)=Cc1cccc2nc(NC(=O)c3cccnc3)nn12 [Example 94, N-[5-(2-methylprop-1-en-1-yl)[1,2,4]triazolo[1,5-a]pyridin-2-yl]nicotinamide dihydrochloride] | 5900
29 | COCCN(C)Cc1ccc(C(=O)Nc2nc3cccc(NC4CCCCC4)n3n2)cc1 [Example 130, N-[5-(cyclohexylamino)[1,2,4]triazolo[1,5-a]pyridin-2-yl]-4-{[(2-methoxyethyl)(methyl)amino]methyl}benzamide] | 531 ± 18
